In PubChem BioAssay AID270 (DTP/NCI, 2004) one finds T/C data, which are given here for twelve compounds.

Values joined by “and” are separate entries in the source; they are usually repeats but may differ in a detail not shown here. Equal values may be shown once. Results filed as inconclusive are left out.

The test relates to BDF1 mice, s.c. Lewis lung carcinoma, T/C %. As to the kind of experiment: NCI In Vivo Anticancer Drug Screen. Data for tumor model Lewis Lung Carcinoma (subcutaneous) in B6D2F1 (BDF1) mice. In a few lines:
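The value reflects a ratio in which the treated cohort's survival time or tumour size is compared against mice receiving only vehicle.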

Setting [1] is: endpoint: median survival time, dose: 25.0 mg/kg/injection, schedule: Q01DX009 (ip), vehicle: Klucel (hydroxypropylcellulose) (HPC), higher = longer survival.

For `O=C(O)CC(NC(=O)CP(=O)(O)O)C(=O)O.[NH-]C1CCCCC1[NH-].[Pt+2]` (configuration not stated), the T/C is, setting by setting: (endpoint: median survival time, dose: 2.0 mg/kg/injection, schedule: Q01DX009 (ip), vehicle: other, higher = longer survival) 90 % of control; (endpoint: median survival time, dose: 4.0 mg/kg/injection, schedule: Q01DX009 (ip), vehicle: other, higher = longer survival) 92 % of control; (endpoint: median survival time, dose: 6.0 mg/kg/injection, schedule: Q01DX009 (ip), vehicle: other, higher = longer survival) 95 % of control; (endpoint: median survival time, dose: 6.0 mg/kg/injection, schedule: Q04DX003 (ip), vehicle: other, higher = longer survival) 102 % of control; (endpoint: median survival time, dose: 8.0 mg/kg/injection, schedule: Q01DX009 (ip), vehicle: other, higher = longer survival) 96 % of control; (endpoint: median survival time, dose: 12.0 mg/kg/injection, schedule: Q04DX003 (ip), vehicle: other, higher = longer survival) 100 % of control. The T/C was 88 % of control (endpoint: median survival time, dose: 18.0 mg/kg/injection, schedule: Q04DX003 (ip), vehicle: other, higher = longer survival) and 102 % of control (endpoint: median survival time, dose: 24.0 mg/kg/injection, schedule: Q04DX003 (ip), vehicle: other, higher = longer survival).

Regarding `CCCCCCC(=O)NC1=C(N2CC2)C(=O)C(NC(=O)CCCCCC)=C(N2CC2)C1=O`, the T/C reads like this: (endpoint: mean tumor weight, dose: 3.8 mg/kg/injection, schedule: Q01DX011 (ip), vehicle: other, higher = larger tumour) 101 % of control; (endpoint: mean tumor weight, dose: 7.5 mg/kg/injection, schedule: Q01DX011 (ip), vehicle: other, higher = larger tumour) 81 % of control; (endpoint: mean tumor weight, dose: 30.0 mg/kg/injection, schedule: Q01DX011 (ip), vehicle: other, higher = larger tumour) 78 % of control; (endpoint: mean tumor weight, dose: 60.0 mg/kg/injection, schedule: Q01DX011 (ip), vehicle: other, higher = larger tumour) 30 % of control.

Regarding `NC1(C(=O)O)CCCC1`, the T/C is, setting by setting: (endpoint: mean tumor weight, dose: 30.0 mg/kg/injection, schedule: Q01DX011 (ip), vehicle: saline, higher = larger tumour) 38 % of control and 61 % of control; (endpoint: mean tumor weight, dose: 60.0 mg/kg/injection, schedule: Q01DX011 (ip), vehicle: saline, higher = larger tumour) 25 % of control and 30 % of control; (endpoint: mean tumor weight, dose: 120.0 mg/kg/injection, schedule: Q01DX011 (ip), vehicle: saline, higher = larger tumour) 8 % of control; (endpoint: median survival time, dose: 1.6 mg/kg/injection, schedule: Q01DX009 (ip), vehicle: carboxymethylcellulose (CMC), higher = longer survival) 96 % of control; (endpoint: median survival time, dose: 6.25 mg/kg/injection, schedule: Q01DX009 (ip), vehicle: carboxymethylcellulose (CMC), higher = longer survival) 123 % of control.

In the case of `CC(=O)[C@H]1CC[C@H]2[C@@H]3CCC4=CC(=O)CC[C@]4(C)[C@H]3CC[C@]12C`, the T/C runs as follows: (endpoint: median survival time, dose: 12.5 mg/kg/injection, schedule: Q02DX009 (ip), vehicle: Klucel (hydroxypropylcellulose) (HPC), higher = longer survival) 99 % of control; (endpoint: median survival time, dose: 25.0 mg/kg/injection, schedule: Q02DX009 (ip), vehicle: Klucel (hydroxypropylcellulose) (HPC), higher = longer survival) 107 % of control; (endpoint: median survival time, dose: 50.0 mg/kg/injection, schedule: Q02DX009 (ip), vehicle: Klucel (hydroxypropylcellulose) (HPC), higher = longer survival) 90 % of control; (endpoint: median survival time, dose: 100.0 mg/kg/injection, schedule: Q02DX009 (ip), vehicle: Klucel (hydroxypropylcellulose) (HPC), higher = longer survival) 95 % of control; (endpoint: median survival time, dose: 200.0 mg/kg/injection, schedule: Q02DX009 (ip), vehicle: Klucel (hydroxypropylcellulose) (HPC), higher = longer survival) 101 % of control; (endpoint: median survival time, dose: 400.0 mg/kg/injection, schedule: Q02DX009 (ip), vehicle: Klucel (hydroxypropylcellulose) (HPC), higher = longer survival) 96 % of control.

Consider `CC1CN(C(=O)CCl)c2ccccc2N1C(=O)CCl` (configuration not stated), for which the T/C was 121 % of control (endpoint: mean tumor weight, dose: 1.0 mg/kg/injection, schedule: Q01DX011 (ip), vehicle: carboxymethylcellulose (CMC), higher = larger tumour); 94 % of control (endpoint: mean tumor weight, dose: 2.0 mg/kg/injection, schedule: Q01DX011 (ip), vehicle: carboxymethylcellulose (CMC), higher = larger tumour); 75 % of control (endpoint: mean tumor weight, dose: 4.0 mg/kg/injection, schedule: Q01DX011 (ip), vehicle: carboxymethylcellulose (CMC), higher = larger tumour); 124 % of control (endpoint: mean tumor weight, dose: 8.0 mg/kg/injection, schedule: Q01DX011 (ip), vehicle: carboxymethylcellulose (CMC), higher = larger tumour).

Consider `CCCCCCCCCCCCNCCCCCCCCCCCC`, for which the T/C runs as follows: (endpoint: mean tumor weight, dose: 2.5 mg/kg/injection, schedule: Q01DX011 (ip), vehicle: other, higher = larger tumour) 78 % of control; (endpoint: mean tumor weight, dose: 5.0 mg/kg/injection, schedule: Q01DX011 (ip), vehicle: other, higher = larger tumour) 67 % of control; (endpoint: mean tumor weight, dose: 10.0 mg/kg/injection, schedule: Q01DX011 (ip), vehicle: other, higher = larger tumour) 55 % of control.

Regarding `O=C(O)CC(O)(CC(=O)O)C(=O)O.[Ga]`, the T/C by setting is: (endpoint: mean tumor weight, dose: 12.5 mg/kg/injection, schedule: Q01DX011 (ip), vehicle: saline, higher = larger tumour) 57 % of control; (endpoint: mean tumor weight, dose: 25.0 mg/kg/injection, schedule: Q01DX011 (ip), vehicle: saline, higher = larger tumour) 50 % of control; (endpoint: mean tumor weight, dose: 50.0 mg/kg/injection, schedule: Q01DX011 (ip), vehicle: saline, higher = larger tumour) 34 % of control.

Take `O=NN(CCCl)C(=O)Nc1cccc(O)c1`: the T/C under setting [1] was 116 % of control.

In the case of `CC1(C)N=C(N)N=C(N)N1c1cccc(CC(=O)Nc2ccc(S(=O)(=O)F)cc2)c1`, the T/C is 100 % of control under setting [1]; 95 % of control (endpoint: median survival time, dose: 50.0 mg/kg/injection, schedule: Q01DX009 (ip), vehicle: Klucel (hydroxypropylcellulose) (HPC), higher = longer survival); 98 % of control (endpoint: median survival time, dose: 100.0 mg/kg/injection, schedule: Q01DX009 (ip), vehicle: Klucel (hydroxypropylcellulose) (HPC), higher = longer survival); 94 % of control (endpoint: median survival time, dose: 150.0 mg/kg/injection, schedule: Q01DX009 (ip), vehicle: Klucel (hydroxypropylcellulose) (HPC), higher = longer survival).

Turning to `Nc1ccccc1Br`, the T/C was 114 % of control (endpoint: mean tumor weight, dose: 222.0 mg/kg/injection, schedule: Q01DX011 (ip), vehicle: other, higher = larger tumour) and 102 % of control (endpoint: mean tumor weight, dose: 333.0 mg/kg/injection, schedule: Q01DX011 (ip), vehicle: other, higher = larger tumour).

On to `CCC1CCC(NC(=O)N(CCF)N=O)CC1` (configuration not stated), for which the T/C (endpoint: median tumor weight (est.), dose: 50.0 mg/kg/injection, schedule: Q01DX001 (ip), vehicle: saline with Tween-80, higher = larger tumour) was 62 % of control.

Consider `O=P(N1CCOCC1)(N1CC1)N1CC1`, for which the T/C was 100 % of control (endpoint: median survival time, dose: 0.78 mg/kg/injection, schedule: Q01DX009 (ip), vehicle: saline, higher = longer survival); 124 % of control (endpoint: median survival time, dose: 1.56 mg/kg/injection, schedule: Q01DX009 (ip), vehicle: saline, higher = longer survival); 100 % of control (endpoint: median survival time, dose: 3.12 mg/kg/injection, schedule: Q01DX009 (ip), vehicle: saline, higher = longer survival); 113 % of control (endpoint: median survival time, dose: 3.13 mg/kg/injection, schedule: Q01DX009 (ip), vehicle: saline, higher = longer survival); 97 % of control and 110 % of control (endpoint: median survival time, dose: 6.25 mg/kg/injection, schedule: Q01DX009 (ip), vehicle: saline, higher = longer survival); 107 % of control (endpoint: median survival time, dose: 25.0 mg/kg/injection, schedule: Q01DX009 (ip), vehicle: saline, higher = longer survival).
